Measured values taken from ChEMBL document CHEMBL1201862, “PubChem BioAssay data set” (2004).
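A five-concentration, 48-hour dose response in 96-well plates underlies each endpoint, interpolated linearly between surrounding concentrations. GI50: concentration for 50% inhibition of growth.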 Activity calls are given as the source filed them. Rule as the data show it: active = GI50 up to about 1.1 µM and inactive = higher.

Columns and labels:
Test in all cases: NCI anticancer screen, dose series, 48 h
RXF 631 = system: RXF 631
SNB-78 = system: SNB-78
XF498 = system: XF498
DMS-114 = system: DMS-114
LXFL 529 = system: LXFL 529
HOP-18 = system: HOP-18
BT-549 = system: BT-549
Hs-578T = system: Hs-578T
PC-3 = system: PC-3

Measured: GI50

CC(=O)O[C@H]1C=CC(=O)C(C)CC1C (stereo partly specified)
inactive: RXF 631 > 100 µM | SNB-78 > 100 µM | XF498 > 100 µM | DMS-114 > 100 µM | LXFL 529 > 100 µM

Cn1nc2ccc3nccc(N(CCO)CCO)c3c2n1
inactive: SNB-78 > 100 µM | XF498 > 100 µM | LXFL 529 > 100 µM | HOP-18 > 100 µM

COc1ccccc1CC(C)N (stereo unspecified)
inactive: RXF 631 > 100 µM | SNB-78 > 100 µM | XF498 > 100 µM | DMS-114 > 100 µM | LXFL 529 > 100 µM | HOP-18 > 100 µM

CCN(CC)CC1CCCCCCCCCCC1=O (stereo unspecified)
inactive: SNB-78 > 100 µM | XF498 > 100 µM | DMS-114 > 100 µM | LXFL 529 > 100 µM

CCCCS(=O)(=O)Nc1ccc(Nc2c3ccccc3nc3ccccc23)c(OC)c1
inactive: SNB-78 5.5 µM | XF498 2.19 µM | HOP-18 7.52 µM

CC1=C(C(=O)Nc2ccc(Cl)c(Cl)c2)C(c2ccc([N+](=O)[O-])cc2)C(C(=O)Nc2ccc(Cl)c(Cl)c2)=C(C)N1
inactive: RXF 631 2.04 µM | SNB-78 2.82 µM | XF498 1.44 µM | DMS-114 2.88 µM | LXFL 529 2.77 µM | HOP-18 3.6 µM

OC(CBr)C(O)C(O)C(O)CBr (stereo unspecified)
inactive: SNB-78 > 100 µM | BT-549 28.2 µM | XF498 80.5 µM | DMS-114 42.4 µM | Hs-578T > 100 µM | HOP-18 > 100 µM | PC-3 > 81.1 µM

O=C(NCCCOC(=O)CCCCCCCCC(=O)OCCCNC(=O)NC(=O)c1c[nH]c(=O)[nH]c1=O)NC(=O)c1c[nH]c(=O)[nH]c1=O
inactive: RXF 631 > 100 µM | SNB-78 > 100 µM | XF498 > 100 µM | LXFL 529 > 100 µM | HOP-18 1.49 µM

COc1ccc(/C(Cl)=C(\C=O)c2ccc(Cl)c(Cl)c2)cc1
inactive: SNB-78 11 µM | XF498 10.8 µM | DMS-114 4.06 µM | LXFL 529 5.81 µM | HOP-18 14.7 µM

Cc1cccc(C)c1NC(=O)CCc1nnc2s/c(=C\c3ccc(N(C)C)cc3)c(=O)n12
inactive: RXF 631 > 100 µM | SNB-78 > 100 µM | XF498 > 100 µM | DMS-114 50.6 µM | LXFL 529 > 100 µM

C/C(=N/NC(=O)CC(=O)N(C(=O)c1ccccc1Cl)c1ccc(C)cc1)c1cc2ccccc2oc1=O
inactive: RXF 631 > 100 µM | SNB-78 > 100 µM | XF498 > 100 µM | DMS-114 49.8 µM | LXFL 529 > 100 µM | HOP-18 > 100 µM

[O-][S+]1c2ccccc2N=C(c2ccc(Cl)cc2)CC1c1cccs1 (stereo unspecified)
inactive: SNB-78 35 µM | DMS-114 14.6 µM | HOP-18 29.2 µM

CC(=O)NC1CC2Oc3ccc(C)cc3C(C)(O2)C1O (stereo unspecified)
inactive: XF498 > 100 µM | DMS-114 > 100 µM | HOP-18 > 100 µM

Cc1cccc(C)c1NC(=O)CCC(=O)NNC(=O)c1cc(O)c2ccccc2c1
inactive: XF498 50.6 µM | DMS-114 21.8 µM | LXFL 529 29.6 µM | HOP-18 11.6 µM

CC(=O)O/C=C(/C=C/OC(C)=O)C(C/C=C(\C)C#CC=C(C)C)OC(C)=O (stereo unspecified)
inactive: RXF 631 > 100 µM | SNB-78 29.9 µM | XF498 37.2 µM | DMS-114 19 µM | LXFL 529 19.3 µM | HOP-18 33.3 µM

Cc1cc(O)c2c(c1)C(=O)c1c(c(O)cc(O)c1-c1c(O)cc(O)c3c1C(=O)c1cc(C)cc(O)c1C3=O)C2=O [SKYRIN]
inactive: SNB-78 26.9 µM | XF498 21.1 µM | DMS-114 16.7 µM | HOP-18 10.4 µM

Nc1nc(O)c2ncn(C3OC(CO)C(O)C3O)c2n1 (stereo unspecified)
inactive: SNB-78 95.3 µM | DMS-114 6.15 µM | HOP-18 49.8 µM

O=S(OC12CC3CC(CC(C3)C1)C2)c1cc(Cl)cc(Cl)c1OCc1ccccc1 (stereo unspecified)
inactive: RXF 631 > 100 µM | SNB-78 > 100 µM | XF498 > 100 µM | DMS-114 73.8 µM | LXFL 529 > 100 µM

CCOC(=O)C(=C=C=C(c1ccccc1)c1ccccc1)C(=O)OCC
inactive: RXF 631 24 µM | SNB-78 16.9 µM | XF498 15.1 µM | DMS-114 18.5 µM | LXFL 529 16.9 µM

CCOC(=O)C1Nc2ccc([N+](=O)[O-])cc2[C@H]2OCC[C@@H]12 (stereo partly specified)
inactive: RXF 631 > 100 µM | SNB-78 > 100 µM | XF498 > 100 µM | DMS-114 > 100 µM | HOP-18 > 100 µM

Cc1c(N(C)C)ccc2c(=O)c3cccc(CC(=O)O)c3oc12
inactive: RXF 631 > 100 µM | SNB-78 > 100 µM | BT-549 65.2 µM | DMS-114 > 100 µM | Hs-578T > 100 µM | HOP-18 > 100 µM | PC-3 > 100 µM

CC1NCCc2c1[nH]c1cc(O)ccc21 (stereo unspecified)
inactive: SNB-78 > 100 µM | XF498 > 100 µM | DMS-114 > 100 µM | LXFL 529 > 100 µM | HOP-18 > 100 µM
